# Measured values from PMC11480233, “Structural insights into the Caprin-2 HR1 domain in canonical Wnt signaling” (The Journal of Biological Chemistry, 2024).
# T1: hCap2_HR1 (HR1 domain of human Caprin-2) (Homo sapiens, UniProt Q6IMN6, R200E/R201E)
# T1 construct: gene CAPRIN2; HR1 domain, aa S102-K351, E. coli BL21-CodonPlus-RIL, modified pET-28a with His tag and TEV site; His tag kept for lipid strip
# T1 sequence (Q6IMN6 102-351 R200E/R201E): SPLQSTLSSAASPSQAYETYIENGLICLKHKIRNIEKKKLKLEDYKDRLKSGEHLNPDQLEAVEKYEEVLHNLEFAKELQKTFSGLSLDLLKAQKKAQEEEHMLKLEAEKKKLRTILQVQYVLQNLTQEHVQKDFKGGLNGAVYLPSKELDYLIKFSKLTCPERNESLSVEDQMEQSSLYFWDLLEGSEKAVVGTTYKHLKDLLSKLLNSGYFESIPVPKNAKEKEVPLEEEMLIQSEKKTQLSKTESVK
# T2: hCap2_HR1 (HR1 domain of human Caprin-2) (Homo sapiens, UniProt Q6IMN6)
# T2 construct: gene CAPRIN2; HR1 domain, aa S102-K351, E. coli BL21-CodonPlus-RIL, modified pET-28a with His tag and TEV site; His tag kept for lipid strip
# T2 sequence (Q6IMN6 102-351): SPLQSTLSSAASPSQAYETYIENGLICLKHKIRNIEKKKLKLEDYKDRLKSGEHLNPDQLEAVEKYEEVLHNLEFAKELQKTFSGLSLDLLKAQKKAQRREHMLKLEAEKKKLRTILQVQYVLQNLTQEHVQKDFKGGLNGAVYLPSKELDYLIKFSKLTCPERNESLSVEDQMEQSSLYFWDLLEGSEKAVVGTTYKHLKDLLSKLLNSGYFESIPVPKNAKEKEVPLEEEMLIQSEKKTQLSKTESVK
# Experiments:
# [1] = molecular target: T1, hCap2_HR1 (HR1 domain of human Caprin-2); assay: biolayer interferometry (Octet Red96); type: binding; conditions: labelled compound; biotinylated PI4P immobilised on streptavidin sensors; 20 mM Tris pH 7.5, 150 mM NaCl, 0.2 mM DTT, 0.05% Tween-20, 0.2 mg/ml BSA
# [2] = molecular target: T2, hCap2_HR1 (HR1 domain of human Caprin-2); assay: biolayer interferometry (Octet Red96); type: binding; conditions: labelled compound; biotinylated PI4P immobilised on streptavidin sensors; 20 mM Tris pH 7.5, 150 mM NaCl, 0.2 mM DTT, 0.05% Tween-20, 0.2 mg/ml BSA
# [3] = molecular target: the molecule itself; assay: SEC; Superdex 200 with a calibration curve; estimated MW 66.45 kDa against theoretical 29.2 kDa
Kd [1],Kd [2],Molecule,stoichiometry N [3]
152 µM,2 µM,biotinylated PI4P,
,,"HR1 domain of human Caprin-2 (aa S102-K351) (domain or fragment, UniProt Q6IMN6 102-351, looked up, Caprin-2, human, HR1 domain construct, residues S102-K351, cloned from full-length human Caprin-2; Modified pET-28a vector with a TEV site in place of the thrombin site; A SeMet triple mutant I217M/L251M/L301M of the same limits was used for phasing; also called hCap2_HR1; Cap2_HR1) SPLQSTLSSAASPSQAYETYIENGLICLKHKIRNIEKKKLKLEDYKDRLKSGEHLNPDQLEAVEKYEEVLHNLEFAKELQKTFSGLSLDLLKAQKKAQRREHMLKLEAEKKKLRTILQVQYVLQNLTQEHVQKDFKGGLNGAVYLPSKELDYLIKFSKLTCPERNESLSVEDQMEQSSLYFWDLLEGSEKAVVGTTYKHLKDLLSKLLNSGYFESIPVPKNAKEKEVPLEEEMLIQSEKKTQLSKTESVK",2
